Experimental data: patent US12421257B2, “Compositions and methods for inhibiting group II intron RNA” (YALE UNIVERSITY, priority 2018, dated 2025)
≈ marks a conversion by molar mass, not a printed value. Entries after “also recorded” stand apart in the source; their conditions may differ. Where two headings read alike, the source gives them in different places.

Columns and labels:
[1] = tested on: C. parapsilosis COX1 group IIB intron; assay: Group II intron splicing in C. parapsilosis by qRT-PCR; type: cell-based, Candida parapsilosis; settings: 32 μg/mL
[2] = tested on: HEK-293T cells; assay: Cytotoxicity in HEK-293T cells (Cell Titer Glo); type: cell-based, human; settings: Homo sapiens, cytotoxicity, 24 hours with compound, read-out: IC50 HEK-293
[3] = tested on: ai5γ group II intron (D135 ribozyme); assay: Fluorescent D135 ribozyme cleavage assay (IC50); type: biochemical, Saccharomyces cerevisiae
Summary of the method: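 D135 ribozyme (20 nM) with double-labeled substrate 17/2 DL (20 nM) in 50 mM MOPS pH 7.0, 100 mM MgCl2, 0.5 M KCl; 19 inhibitor concentrations, 5 nM–1 mM, 10 min at 37 °C, EDTA quench, fluorescence read. Triplicates fit to 4-parameter logistic for IC50; mean±s.e.m.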

[4] = target: ai5γ group II intron; assay: Radioanalytic self-splicing assay of SE RNA (Ki); type: biochemical, Saccharomyces cerevisiae; settings: 8 mM MgCl2, 100 mM KCl, pH 7.5, 30° C.
Description: Internally labeled SE RNA (2 nM) was incubated with various concentrations of inhibitor compound under near-physiological conditions (in 50 mM MOPS, pH 7.5, 8 mM MgCl2, 100 mM KCl) at 30° C. Aliquots at different time points were quenched and analyzed on 5% denaturing polyacrylamide gel as previously described (Daniels et al., 1996, Journal of molecular biology, 256:31-49). Data were fit to a single-exponential equation to determine the first order rate constants (kobs). The latter were then plotted against the concentration of the inhibitor and fit to the equation for non-competitive inhibition to determine Ki values: kobs=kmax/(1+[I]/Ki), where kobs and kmax are the first order rate constants measured in the presence and in the absence of the inhibitor, respectively, [I] is the concentration of the inhibitor and Ki is the inhibition constant. Experiments were performed four times for API-014, three times for APY-090, Intronistat A, and Intronistat B and twice for the remaining compounds to ensure reproducibility. Data represent average±s.e.m.

[5] = tested on: C. parapsilosis; assay: MIC determination against C. parapsilosis; type: cell-based, Candida parapsilosis; settings: Lodderomyces parapsilosis; RPMI-1640, 35° C. or 37° C., turbidity after 24 and 48 hours
Summary of the method: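 Broth microdilution in RPMI-1640 with C. parapsilosis at 0.5×10^3 to 2.5×10^3 CFU/mL; test compounds 0.25-128 μg/ml final, 1% DMSO. Plates incubated at 35° C or 37° C, turbidity read visually at 24 and 48 h. MIC = lowest concentration without visible growth; triplicates.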

[6] = tested on: S. cerevisiae; assay: Yeast respiration assay in S. cerevisiae (MIC in YPD / YPGE); type: cell-based, Saccharomyces cerevisiae; settings: Saccharomyces cerevisiae, 30° C.
Description: Yeast respiration assays were conducted either in liquid YPD media (BD Bacto Yeast Extract, BD Bacto Peptone, 2% glucose) or in YPGE media (BD Bacto Yeast Extract, BD Bacto Peptone, 3% glycerol, 3% ethanol), essentially as described for the antifungal MIC assays (see below). To initiate these experiments, 100 μl of a fresh stock solution was prepared for each compound (3.2 mg/ml for Amphotericin B and 12.8 mg/ml for each test compounds) in DMSO. This concentrated stock solution was placed in the first well of 12-well row on a 96-well plate. The subsequent nine wells in this row contained 50 μl of DMSO for serial dilution. From the first well, 50 μl of the compound stock was withdrawn, transferred to the second well and mixed. This process was repeated from the second and subsequent wells, resulting in a 1:2 serial dilution of the stock into DMSO. Wells 11 and 12 contained DMSO only, to be used as no compound control and sterility control, with no inoculum added, respectively. After preparing this plate, 2.5 μl from each of the 12 wells was transferred to the wells of a separate 96-well plate, each of which contained 122.5 μl of YPD or YPGE medium, resulting in a set of serial dilutions of compound into growth media in a volume of 125 μl. Then 50 μl from each of these dilutions were transferred onto a third 96-well plate (the assay plate) and mixed with an equal volume (50 μl) of freshly prepared yeast inoculum in YPD or YPGE medium set to provide 0.5×10^3 to 2.5×10^3 colony forming units per 1 mL (wells 1-11), or YPD/YPGE alone (sterility control, well 12). The final compound concentration range of the assay was 0.25-128 μg/ml for test compounds and 0.0625-32 μg/ml for Amphotericin B. The final concentration of DMSO was 1%. Plates were incubated at 30° C. and visually analyzed for turbidity after 24 and 48 hours of incubation. The lowest compound concentration at which no growth was apparent is reported as the MIC (Table 1). All experiments were performed in triplicate.

IC50 ([3]; D135 ribozyme cleavage of substrate 17/2 DL, 100 mM MgCl2, 500 mM KCl, 37° C., 10 minutes) | Ki [4] | MIC [5] | MIC ([6]; YPD medium, read-out: MIC in YPD (glucose)) | MIC ([6]; YPGE medium, read-out: MIC in YPGE (glycerol)) | SMILES | Splicing of C. parapsilosis COX1 in vivo (in words) [1] | IC50 [2] | In vitro inhibitory activity, SAR statement (in words) ([3]; relative to parent scaffold)
> 100 µM | > 1000 µM | > 128 µg/mL |  |  | COc1ccc(/C=C2\Oc3cc(O)cc(O)c3C2=O)cc1OC [APY-001, (Z)-2-(3,4-Dimethoxybenzylidene)-4,6-dihydroxybenzofuran-3(2H)-one] | this effect was not observed; also recorded: inactive | > 128 µg/mL | nearly complete loss of activity
 |  | 16 µg/mL (≈ 55.9 µM) | > 128 µg/mL | 64 µg/mL (≈ 224 µM) | O=C1/C(=C/c2cc(O)c(O)c(O)c2)Oc2cccc(O)c21 [APY-019, (Z)-4-Hydroxy-2-(3,4,5-trihydroxybenzylidene)benzofuran-3(2H)-one] |  | > 32 µg/mL | 
